Source: US20200330655A1, “DELIVERY OF NITRIC OXIDE-RELEASING PHOSPHOLIPIDS, LIPOSOMES, AND HIGH DENSITY LIPOPROTEIN-LIKE NANOPARTICLES (HDL NPS) BY DRUG ELUTING STENTS AND INTRA-ARTERIAL INJECTION” (Northwestern University, priority 2016, published 2020)

How the values were obtained:
[1] = SNO DPPTE exposure to light and/or room temperature; type: physicochemical; settings: FIG. 17
[2] = test system: porcine coronary injury model; settings: drug eluting stent loaded with the NO donor; cited from earlier work

S-nitrosylated 1,2-dipalmitoyl-sn-glycero-3-phosphothioethanol [SNO DPPTE]
stability on exposure to light and/or room temperature [1]: forms disulfide bonds

nitroprus side
neointimal hyperplasia and restenosis [2]: did not reduce
